# Reference: patent US4130709A, “Pleuromutilin glycoside derivatives” (Eli Lilly and Company, priority 1977, dated 1978)
# Like-named read-outs stand apart in the source and are kept apart here.
# Legend:
# [1] = system: Bacteroides melaninogenicus 1856/28; test: standard agar-dilution test, anaerobic bacteria; assay type: cell-based; settings: Prevotella intermedia
# Clostridium perfringens = test: microbe, parasite or virus in culture; assay type: cell-based; settings: 24 h
# Eubacterium aerofaciens = test: standard agar-dilution test, anaerobic bacteria; assay type: cell-based; settings: Collinsella aerofaciens
# Bacteroides fragilis 111 = test: standard agar-dilution test, anaerobic bacteria; assay type: cell-based
# Bacteroides vulgatis = test: standard agar-dilution test, anaerobic bacteria; assay type: cell-based
# [2] = system: Peptostreptococcus intermedius; test: standard agar-dilution test, anaerobic bacteria; assay type: cell-based
# [3] = system: Bacteroides fragilis 1877; test: standard agar-dilution test, anaerobic bacteria; assay type: cell-based
# [4] = system: Bacteroides fragilis 1936B; test: standard agar-dilution test, anaerobic bacteria; assay type: cell-based
# [5] = system: Peptostreptococcus anaerobius; test: standard agar-dilution test, anaerobic bacteria; assay type: cell-based; settings: 24-hour incubation
# Actinomyces israelii = test: standard agar-dilution test, anaerobic bacteria; assay type: cell-based; settings: 24-hour incubation
# [6] = system: Peptococcus asaccharolyticus; test: standard agar-dilution test, anaerobic bacteria; assay type: cell-based; settings: Peptoniphilus asaccharolyticus, 24-hour incubation
# [7] = toxicity (LD50) on intraperitoneal injection in mice; settings: mouse, in vivo, ip; intraperitoneal injection, mice
# Clostridium septicum = test: standard agar-dilution test, anaerobic bacteria; assay type: cell-based; settings: 24-hour incubation
# Protocol: (§1) Table IV summarizes the activity of typical compounds of this invention, as determined by the standard agar-dilution test.
# (§2) *Endpoint read after 24-hour incubation
# [8] = system: Bacteroides thetaiotaomicron; test: standard agar-dilution test, anaerobic bacteria; assay type: cell-based; settings: 24-hour incubation
# Protocol: as §1, §2
# [9] = system: Bacteroides melaninogenicus 2736; test: standard agar-dilution test, anaerobic bacteria; assay type: cell-based
# Mycoplasma synoviae = test: in vitro broth-dilution studies, mycoplasma; assay type: cell-based; settings: Mycoplasmopsis synoviae
# Source text: (§3) The minimal inhibitory concentrations (MIC's) of a number of typical compounds of the present invention (R^2 =H in group tested) against various mycoplasma species, as determined by in vitro broth-dilution studies, are summarized in Table V.
# Mycoplasma gallisepticum = test: in vitro broth-dilution studies, mycoplasma; assay type: cell-based; settings: Mycoplasmoides gallisepticum
# Source text: as §3
# Mycoplasma hyorhinis = test: in vitro broth-dilution studies, mycoplasma; assay type: cell-based
# Source text: as §3
# Spiroplasma citri = test: in vitro inhibition of Spiroplasma citri measured by a color reaction; assay type: cell-based; set-up: key to Activity (color reaction): Red (R) includes complete inhibition; red-orange (RO) indicates partial inhibition; yellow (Y) indicates no inhibition
# Protocol: In another important aspect, the compounds of this invention are active against Spiroplasmas. Spiroplasma citri is the causative agent of citrus-stubborn disease; another Spiroplasma, corn-stunt Spiroplasma, affects the growth of corn. Table VII summarizes the in vitro activity of representative compounds of the present invention (R^2 =H in this group) against Spiroplasma citri. In this test, inhibition of S. citri is measured by a color reaction. Red (R) includes complete inhibition; red-orange (RO) indicates partial inhibition; and yellow (Y) indicates no inhibition.
# Bacteroides corrodens = test: standard agar-dilution test, anaerobic bacteria; assay type: cell-based; settings: Eikenella corrodens
# Peptococcus prevoti = test: standard agar-dilution test, anaerobic bacteria; assay type: cell-based
# [10] = system: Fusobacterium necrophorum; test: standard agar-dilution test, anaerobic bacteria; assay type: cell-based
# Fusobacterium symbiosum = test: standard agar-dilution test, anaerobic bacteria; assay type: cell-based
# [11] = system: Pasteurella multocida (turkey); test: in vitro activity against Pasteurella multocida (turkey); assay type: cell-based
# Source text: (§4) The activity of representative compounds of this invention (R^2 =H in group tested) against P. multocida and the Pseudomonas sp. is summarized in Table VI.
# [12] = system: Staphylococcus aureus (H-Heatley) NRRL B-314; test: in vitro turbidometric assay (Autoturb Microbiological Assay System) against Staphylococcus aureus; assay type: cell-based; settings: nutrient broth pH 7, approximately 4 hours at 37° C., A-40104 factor A as standard
# Protocol: The compounds are conveniently tested against a typical gram-positive organism, Staphylococcus aureus, using a turbidometric assay on a semi-automated system (Autoturb Microbiological Assay System, Elanco) described by N. R. Kuzel and F. W. Kavanagh in J. Pharmaceut. Sci, 60 (5), 764 and 767 (1971). In testing these compounds, the following parameters were used: Staphylococcus aureus (H-Heatley) NRRL B-314 in a nutrient broth medium (pH 7), incubated for approximately 4 hours at 37° C. Test samples and A-40104 factor A, which is used as a standard, were dissolved in water. The standard was presented to the Autoturb carrousel at concentrations of 1.25, 2.50, 3.75, 5.00 and 6.25 mcg/ml. Test compounds were diluted to contain approximately 2.5 to 5.0 mcg of activity per ml, as presented to the carrousel. The units of activity of some of the typical compounds of this invention (R^2 =H in group tested) in this in vitro assay are summarized in Table I
# Pseudomonas sp. (fish) = test: in vitro activity against Pseudomonas sp. (fish); assay type: cell-based
# Source text: P. multocida, for example, is a causative agent of respiratory infection in cattle, poultry and swine. P. hemolytica is a major cause of respiratory disease in cattle. The activity of representative compounds of this invention (R^2 =H in group tested) against P. multocida and the Pseudomonas sp. is summarized in Table VI.
# [13] = system: Pasteurella multocida (bovine); test: in vitro activity against Pasteurella multocida (bovine); assay type: cell-based
# Source text: as §4
# Mycoplasma hyopneumoniae = test: in vitro broth-dilution studies, mycoplasma; assay type: cell-based; settings: Mesomycoplasma hyopneumoniae
# Source text: as §3
# Treponema hyodysenteriae = test: in vitro agar plate test against Treponema hyodysenteriae; settings: four days anaerobic
# Pasteurella hemolytica = test: in vitro tests against Pasteurella hemolytica; assay type: cell-based
structure (smiles),measurement,setting,value
"CC[C@]1(C)C[C@@H](OC(=O)CO[C@H]2O[C@H](COC(C)=O)[C@@H](OC(C)=O)[C@H](OC(C)=O)C2=NO)[C@]2(C)[C@H](C)CC[C@]3(CCC(=O)[C@H]32)[C@@H](C)[C@@H]1O [Compound 8, 14-deoxy-14-[(2-deoxy-2-(hydroxyimino)-3,4,6-tri-O-acetyl-α-D-glucopyranosyl)oxyacetoxy]-19,20-dihydromutilin]",MIC,"[1]; 1856/28, 24 h",> 128 µg/mL
same,MIC,Clostridium perfringens,> 128 µg/mL
same,MIC,Eubacterium aerofaciens; 24 h,> 128 µg/mL
same,MIC,"Bacteroides fragilis 111; Bacteroides fragilis, 111, 24 h",> 128 µg/mL
same,MIC,"Bacteroides vulgatis; Bacteroides, 24 h",> 128 µg/mL
same,MIC,"[2]; Peptostreptococcus, 24 h",> 128 µg/mL
same,MIC,"[3]; Bacteroides fragilis, 1877, 24 h",> 128 µg/mL
same,MIC,"[4]; Bacteroides fragilis, 1936B, 24 h",> 128 µg/mL
same,MIC,[5],64 µg/mL
same,MIC,Actinomyces israelii,8 µg/mL
same,MIC,[6],8 µg/mL
same,LD50,[7],> 300 mg/kg
same,MIC,Clostridium septicum,> 128 µg/mL
same,MIC,[8],> 128 µg/mL
same,MIC,"[9]; 2736, 24 h",> 128 µg/mL
same,MIC,Mycoplasma synoviae,6.25 µg/mL
same,MIC,Mycoplasma gallisepticum,3.12 µg/mL
same,MIC,Mycoplasma hyorhinis,6.25 µg/mL
same,Activity (color reaction),Spiroplasma citri; 0.1 ppm,Y
same,Activity (color reaction),Spiroplasma citri; 1.0 ppm,R
same,MIC,Bacteroides corrodens; 24 h,> 128 µg/mL
same,MIC,Peptococcus prevoti; 24 h,> 128 µg/mL
same,MIC,[10]; 24 h,> 128 µg/mL
same,MIC,"Fusobacterium symbiosum; Fusobacterium, 24 h",> 128 µg/mL
"CC[C@]1(C)C[C@@H](OC(=O)CS[C@@H]2OC[C@@H](OC(C)=O)[C@H](OC(C)=O)[C@H]2OC(C)=O)[C@]2(C)[C@H](C)CC[C@]3(CCC(=O)[C@H]32)[C@@H](C)[C@@H]1O [Compound 6, 14-deoxy-14-[(2,3,4-tri-O-acetyl-β-D-xylopyranosyl)thioacetoxy]-19,20-dihydromutilin]",MIC,"[1]; Bacteroides melaninogenicus 1856/28, 24-hour incubation, read-out: MIC",2 µg/mL
same,MIC,Clostridium perfringens,> 128 µg/mL
same,MIC,"Eubacterium aerofaciens; Eubacterium aerofaciens, 24-hour incubation, read-out: MIC",16 µg/mL
same,MIC,[11],< 50 µg/mL
same,MIC,"Bacteroides fragilis 111; Bacteroides fragilis 111, 24-hour incubation, read-out: MIC",2 µg/mL
same,MIC,"Bacteroides vulgatis; Bacteroides vulgatis, 24-hour incubation, read-out: MIC",4 µg/mL
same,Units of Activity,[12],746 to 883 µg/mg
same,MIC,"[2]; Peptostreptococcus intermedius, 24-hour incubation, read-out: MIC",4 µg/mL
same,MIC,"[3]; Bacteroides fragilis 1877, 24-hour incubation, read-out: MIC",2 µg/mL
same,MIC,"[4]; Bacteroides fragilis 1936B, 24-hour incubation, read-out: MIC",8 µg/mL
same,MIC,Pseudomonas sp. (fish),12.5 µg/mL
same,MIC,[5],≤ 0.5 µg/mL
same,MIC,Actinomyces israelii,2 µg/mL
same,MIC,[6],4 µg/mL
same,MIC,[13],< 50 µg/mL
same,MIC,Clostridium septicum,1 µg/mL
same,MIC,[8],8 µg/mL
same,MIC,"[9]; Bacteroides melaninogenicus 2736, 24-hour incubation, read-out: MIC",4 µg/mL
same,MIC,Mycoplasma synoviae,0.78 µg/mL
same,MIC,Mycoplasma gallisepticum,0.78 µg/mL
same,MIC,Mycoplasma hyopneumoniae,≤ 0.15 µg/mL
same,MIC,Mycoplasma hyorhinis,0.39 µg/mL
same,Activity (color reaction),Spiroplasma citri; 0.01 ppm,RO
same,Activity (color reaction),Spiroplasma citri; 0.05 ppm,R
same,Activity (color reaction),Spiroplasma citri; 0.1 ppm,R
same,Activity (color reaction),Spiroplasma citri; 1.0 ppm,R
same,MIC,"Bacteroides corrodens; Bacteroides corrodens, 24-hour incubation, read-out: MIC",4 µg/mL
same,MIC,"Peptococcus prevoti; Peptococcus prevoti, 24-hour incubation, read-out: MIC",2 µg/mL
same,MIC,"[10]; 24-hour incubation, read-out: MIC",4 µg/mL
same,MIC,"Fusobacterium symbiosum; Fusobacterium symbiosum, 24-hour incubation, read-out: MIC",4 µg/mL
CC[C@]1(C)C[C@@H](OC(=O)CS[C@@H]2OC[C@@H](O)[C@H](O)[C@H]2O)[C@]2(C)[C@H](C)CC[C@]3(CCC(=O)[C@H]32)[C@@H](C)[C@@H]1O,inhibition of growth,Treponema hyodysenteriae; 0.5 mcg/ml agar concentration,inhibited growth
same,inhibition of growth,Treponema hyodysenteriae; 5.0 mcg/ml agar concentration,inhibited growth
same,inhibition of growth,Treponema hyodysenteriae; 50 mcg/ml agar concentration,inhibited growth
same,LD50,[7],> 1500 mg/kg
same,MIC,"Spiroplasma citri; Spiroplasma citri, in vitro, read-out: inhibits the growth of S. citri at levels as low as",≥ 0.01 µg/mL
same,MIC,Pasteurella hemolytica,10.4 µg/mL
